Laboratory results reported in patent US20210322582A1, “RADIOACTIVE IMIDAZOTHIADIAZOLE DERIVATIVE COMPOUND” (Nihon Medi-Physics Co., Ltd., priority 2018, published 2021).

Tests used:
[1] = tested on: CA-IX-negative MDA-MB-231 cells; test: In vitro CA-IX affinity and specificity, cell binding, cells lysed at 37° C. (Example 18); assay type: cell-based; details: for Inhibition of cell binding by acetazolamide: MDA-MB-231 cells, normoxic and hypoxic, lysis at 37° C.
Method: (§1) HT-29 cells (purchased from Dainippon Sumitomo Pharma Co., Ltd.) and MDA-MB-231 cells (purchased from Dainippon Sumitomo Pharma Co., Ltd.) were incubated in a 12-well plate (2.0×10^5 cells/well) at 37° C. for 24 hours under an atmosphere of 5% carbon dioxide and 21% oxygen, and then further incubated at 37° C. for 24 hours under an atmosphere of 5% carbon dioxide and 21% or 1% oxygen. After the culture medium was removed, Dulbecco's modified Eagle's medium (DMEM, 1 mL) containing[^111In]ITDA1 (14 kBq), [^111In]ITDA2 (26 kBq), or [^111In]ITDA3 (37 kBq) was added to each well, and then the incubation was performed at 37° C. for 2 hours under an atmosphere of 5% carbon dioxide and 21% or 1% oxygen. In addition, a separate plate was incubated in a similar manner as in the above except that acetazolamide (AZ, 50 μM) was added to [^111In]ITDA1 (14 kBq), [^111In]ITDA2 (26 kBq), or [^111In]ITDA3 (37 kBq) as a competitive compound for CA-IX. After that, each well was washed with 1 mL of phosphate-buffered saline (PBS, pH 7.4) (manufactured by NACALAI TESQUE, INC.), and the cells were lysed at room temperature in an aqueous solution of 1 N sodium hydroxide ([^111In]ITDA1: 0.25 mL×2, [^111In]ITDA2: 0.5 mL×2, and [^111In]ITDA3: 0.2 mL×2). The amount of radioactivity bound to the cells was measured by a gamma counter (model name: Wallac 1470 Wizard, PerkinElmer, Massachusetts, made in U.S.A., the same applies to the following examples).
(§2) Example 18 was performed similarly as in Example 11 except that the cells were lysed in a constant temperature water bath at 37° C. The accumulation of radioactivity in each cell was expressed by % initial dose/mg protein obtained by dividing the ratio of the amount of radioactivity bound to each cell to the added amount of radioactivity by the amount of cell protein.

[2] = tested on: CA-IX-positive HT-29 cells; test: as above; assay type: cell-based; details: for Inhibition of cell binding by acetazolamide: HT-29 cells, normoxic and hypoxic; for Inhibition of cell binding by acetazolamide / Selectivity of binding to CA-IX: lysis at 37° C.; for Selectivity of binding to CA-IX: HT-29 vs MDA-MB-231 cells
Method: as §1, §2

[3] = 1-octanol/PBS (pH 7.4) partition coefficient; assay type: physicochemical
Method: The 1-octanol/PBS (pH 7.4) partition coefficients of [^111In]ITDA1 and [^111In]ITDA2, which were obtained in Example 6, and [^111In]ITDA3 obtained in Example 10 were measured.
The above two phases were saturated with each other in advance, and 1-octanol (3 mL) and PBS (3 mL) were pipetted into a 15-mL test tube containing [^111In]ITDA1 (37 kBq), [^111In]ITDA2 (37 kBq), or [^111In]ITDA3 (370 kBq). The test tube was vortexed for 2 minutes and centrifuged (4,000 g, 5 minutes). 0.5 mL was taken from each of the 1-octanol phase and the PBS phase, and transferred to two test tubes, respectively for measurement. The residual PBS phase (1 mL), and newly prepared 1-octanol (3 mL) and PBS (2 mL) were pipetted into a new test tube. The amount of radioactivity in each test tube was measured by using a gamma counter. The partition coefficient was calculated by using the equation log Pow=log10[count1-octanol/countPBS]. As a result, the log Pow of [^111In]ITDA1 was −3.72±0.05, the log Pow of [^111In]ITDA2 was −2.32±0.01, and the log Pow of [^111In]ITDA3 was −3.47±0.09.

[4] = tested on: CA-IX-negative MDA-MB-231 cells; test: In vitro CA-IX affinity and specificity, cell binding, cells lysed at room temperature (Example 11); assay type: cell-based; details: AZ 50 μM, 21% or 1% oxygen, lysis at room temperature
Method: as §1
(§3) FIG. 3A is a graph showing whether or not the affinity of compound [^111In]ITDA1 for CA-IX in each of the HT-29 cells and the MDA-MB-231 cells is inhibited by the coexistence of acetazolamide (AZ). Further, FIG. 3B is a graph showing whether or not the affinity of compound [^111In]ITDA2 for CA-IX in each of the HT-29 cells and the MDA-MB-231 cells is inhibited by the coexistence of acetazolamide (AZ). Moreover, FIG. 3C is a graph showing whether or not the affinity of compound [^111In]ITDA3 for CA-IX in each of the HT-29 cells and the MDA-MB-231 cells is inhibited by the coexistence of acetazolamide (AZ).

[5] = tested on: CA-IX-positive HT-29 cells; test: as above; assay type: cell-based; details: for Inhibition of cell binding by acetazolamide: HT-29 cells, AZ 50 μM, 21% or 1% oxygen, lysis at room temperature; for Selectivity of binding to CA-IX: HT-29 vs MDA-MB-231 cells, room temperature lysis
Method: as §1, §3

[6] = In vitro stability in mouse plasma; assay type: in vitro ADME; details: 37° C.; for Stability in mouse plasma: 24-hour incubation; for Stability (intact (%)): mouse plasma
Method: Blood was collected from a ddy mouse (purchased from Shimizu Laboratory Supplies Co., Ltd.), and centrifuged (1,200 g, 10 minutes) in a venous blood collection tube (manufactured by Becton, Dickinson and Company). The blood plasma (200 μL) was separated, a saline solution (185 kBq) of [^111In]ITDA1, [^111In]ITDA2, or [^111In]ITDA3 was added into the blood plasma, and the obtained mixture was incubated at 37° C. for 1, 4, 8, and for 24 hours (n=3). Further, into the incubated mixture, acetonitrile (200 μL) was added, and then the mixture was centrifuged (10,000 g, 5 minutes), the supernatant was filtered with COSMONICE Filter (S) (0.45 μm, 4 mm) (manufactured by NACALAI TESQUE, INC.), and the filtrate was analyzed by RP-HPLC under the following conditions. In this regard, the intact % in FIGS. 4A and 4B was determined from the area percentage of the RP-HPLC elution pattern.
Column: Cosmosil Cis column (5C18-PAQ, 4.6×250 mm)
Mobile phase: water/acetonitrile/trifluoroacetic acid (90: 10: 0.1 (0 min)→60: 40: 0.1 (30 min)), and flow rate for analysis: 1.0 mL/min

[7] = 1% Oxygen AZ(+), acetazolamide 50 μM
[8] = 21% Oxygen AZ(+), acetazolamide 50 μM

Row | log Pow [3] | Stability in mouse plasma [6] | Compound | Amount of binding to MDA-MB-231 cells [1, 7] [% initial dose/mg protein] | Amount of binding to MDA-MB-231 cells ([1]; 1% Oxygen AZ(−)) [% initial dose/mg protein] | Amount of binding to MDA-MB-231 cells [1, 8] [% initial dose/mg protein] | Amount of binding to MDA-MB-231 cells ([1]; 21% Oxygen AZ(−)) [% initial dose/mg protein] | Inhibition of cell binding by acetazolamide [1] | Amount of binding to HT-29 cells [2, 7] [% initial dose/mg protein] | Amount of binding to HT-29 cells ([2]; 1% Oxygen AZ(−)) [% initial dose/mg protein] | Amount of binding to HT-29 cells [2, 8] [% initial dose/mg protein] | Amount of binding to HT-29 cells ([2]; 21% Oxygen AZ(−)) [% initial dose/mg protein] | Inhibition of cell binding by acetazolamide [2] | Selectivity of binding to CA-IX [2] | Inhibition of cell binding by acetazolamide [4] | Inhibition of cell binding by acetazolamide [5] | Selectivity of binding to CA-IX [5] | other results
1 | −3.72±0.05 | sufficient stability | NS(=O)(=O)c1nn2cc(-c3ccc(NC(=O)CN4CCN(CC(=O)O)CCN(CC(=O)O)CCN(CC(=O)O)CC4)cc3)nc2s1.[111In+3] [[^111In]ITDA1, [^111In]indium(III)2,2′,2″-(10-(2-oxo-2-((4-(2-sulfamoylimidazo[2,1-b][1,3,4]thiadiazol-6-yl)phenyl)amino)ethyl)-1,4,7,10-tetraazacyclododecan-1,4,7-triyl) triacetic acid] | 0.1 ± 0.0 | 6.5 ± 0.8 | 0.1 ± 0.0 | 1.4 ± 0.3 | the competitive inhibition was not observed | 2.2 ± 0.5 | 198.9 ± 5.7 | 0.9 ± 0.2 | 118.1 ± 21.4 | the inhibition was observed in the presence of acetazolamide | selectively bind to the CA-IX | the competitive inhibition was not observed | the inhibition was observed in the presence of acetazolamide | selectively bind to the CA-IX | 
2 | −2.32±0.01 | sufficient stability | NS(=O)(=O)c1nn2cc(-c3ccc(NC(=O)CN4CCN(CC(=O)O)CCN(CC(=O)Nc5ccc(-c6cn7nc(S(N)(=O)=O)sc7n6)cc5)CCN(CC(=O)O)CC4)cc3)nc2s1.[111In+3] [[^111In]ITDA2, [^111In]indium(III)2,2′-(4,10-bis(2-oxo-2-((4-(2-sulfamoylimidazo[2,1-b][1,3,4]thiadiazol-6-yl)phenyl)amino)ethyl)-1,4,7,10-tetraazacyclododecan-1,7-diyl) diacetic acid] | 0.7 ± 0.1 | 2.9 ± 0.4 | 1.4 ± 0.2 | 2.5 ± 0.5 | the competitive inhibition was not observed | 12.1 ± 3.7 | 109.2 ± 6.7 | 7.6 ± 2.3 | 48.3 ± 5.9 | the inhibition was observed in the presence of acetazolamide | selectively bind to the CA-IX | the competitive inhibition was not observed | the inhibition was observed in the presence of acetazolamide | selectively bind to the CA-IX | 
3 | −3.47±0.09 |  | NS(=O)(=O)c1nn2cc(-c3ccc(NC(=O)CCC(C(=O)O)N4CCN(CC(=O)[O-])CCN(CC(=O)[O-])CCN(CC(=O)[O-])CC4)cc3)nc2s1.[111In+3] (stereo not shown) [[^111In]ITDA3] | 0.1 ± 0.0 | 2.0 ± 1.1 | 0.2 ± 0.0 | 0.5 ± 0.1 | the competitive inhibition was not observed | 1.0 ± 0.1 | 93.4 ± 16.0 | 0.3 ± 0.0 | 47.2 ± 6.8 | the inhibition was observed in the presence of acetazolamide | selectively bind to the CA-IX | the competitive inhibition was not observed | the inhibition was observed in the presence of acetazolamide | selectively bind to the CA-IX | Stability (intact %) in mouse plasma ([6]; incubation for 1 to 24 hours): ≥ 95%; Stability (intact (%)) ([6]; 1 h): 97.4 ± 0.8%; Stability (intact (%)) ([6]; 4 h): 99.0 ± 0.6%; Stability (intact (%)) ([6]; 8 h): 98.0 ± 0.1%; Stability (intact (%)) ([6]; 24 h): 98.8 ± 0.4%
